# Source: patent US20140275282A1, “Treating osteopenia and related disorders with geranylgeranyl acetone and derivatives thereof” (COYOTE PHARMACEUTICALS, INC., priority 2013, published 2014)
# System: osteoclast-mediated bone resorption
# Experiment: Inhibition of osteoclast function in vivo by monitoring bone resorption in young growing mice
# Conditions: young growing mice aged 3-4 weeks, subcutaneous bid for 14 days (5 mg/kg/day)
# Description: GGA and derivatives can be tested for their ability to modulate osteoclast function by administering to animals and monitoring bone resorption. One model is to determine the effects on bone resorption of young growing mice as previously described (Schenk et al., Calcif. Tissues Int 38:342-349, 1986; Simonet et al., Cell 89, 308-319, 1997). Young growing mice aged 3-4 weeks, weight range 9.2-15.7 g are divided into groups of ten mice per group. These mice are injected subcutaneously with saline or test compounds bid for 14 days (5 mg/kg/day). The mice are then radiographed before treatment, at day 7 and on day 14. The mice were sacrificed 24 hours after the final injection. The right femur is then removed, fixed in zinc formalin, decalcified in formic acid and embedded in paraffin. Sections are cut through the mid region of the distal femoral metaphysis and the femoral shaft. Bone density, by histomorphometry, is determined in six adjacent regions extending from the metaphyseal limit of the growth plate, through the primary and secondary spongiosa and into the femoral diaphysis (shaft). […] This is a region where bone is rapidly removed by osteoclast-mediated bone resorption in mice. In these rapidly growing young mice, the increase in bone in this region observed with treatment is consistent with an inhibition of bone resorption.
smiles,measurement,setting,value
"CC(=O)CCC=C(C)CCC=C(C)CCC=C(C)CCC=C(C)C [GGA, Geranylgeranyl acetone]","Radiographic changes: zone of bone density in the spongiosa associated with the growth plates, relative to controls",after seven days of treatment,increased bone density
same,"Histological changes: bone density (histomorphometry) in distal femoral metaphysis, regions 1.1 to 2.65 mm from the growth plate",right femur removed 24 hours after final injection,increased bone density
